Assay results reported in PubChem BioAssay (NCI).
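GI50: concentration for 50% inhibition of growth. TGI is the concentration that stops growth completely.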

How the values were obtained:
Test in all cases: NCI anticancer screen, dose series, 384-well format
786-0 renal = system: 786-0 renal
A498 renal = system: A498 renal
A549 NSCLC = system: A549 NSCLC
ACHN renal = system: ACHN renal
BT-549 breast = system: BT-549 breast
CAKI-1 renal = system: CAKI-1 renal
CCRF-CEM leukemia = system: CCRF-CEM leukemia
COLO 205 colon = system: COLO 205 colon
DU-145 prostate = system: DU-145 prostate
EKVX NSCLC = system: EKVX NSCLC
HCC-2998 colon = system: HCC-2998 colon
HCT-116 colon = system: HCT-116 colon
HCT-15 colon = system: HCT-15 colon
HL-60(TB) leukemia = system: HL-60(TB) leukemia
HOP-62 NSCLC = system: HOP-62 NSCLC
HOP-92 NSCLC = system: HOP-92 NSCLC
HS 578T breast = system: HS 578T breast
HT29 colon = system: HT29 colon
IGROV1 ovarian = system: IGROV1 ovarian
KM12 colon = system: KM12 colon
LOX IMVI melanoma = system: LOX IMVI melanoma
M14 melanoma = system: M14 melanoma
MALME-3M melanoma = system: MALME-3M melanoma
MCF7 breast = system: MCF7 breast
MDA-MB-231 breast = system: MDA-MB-231 breast
MDA-MB-435 melanoma = system: MDA-MB-435 melanoma
MDA-MB-468 breast = system: MDA-MB-468 breast
MOLT-4 leukemia = system: MOLT-4 leukemia
NCI-H226 lung = system: NCI-H226 lung
NCI-H23 lung = system: NCI-H23 lung
NCI-H322M lung = system: NCI-H322M lung
NCI-H460 NSCLC = system: NCI-H460 NSCLC
NCI-H522 lung = system: NCI-H522 lung
NCI/ADR-RES ovarian = system: NCI/ADR-RES ovarian
OVCAR-3 ovarian = system: OVCAR-3 ovarian
OVCAR-4 ovarian = system: OVCAR-4 ovarian
OVCAR-5 ovarian = system: OVCAR-5 ovarian
OVCAR-8 ovarian = system: OVCAR-8 ovarian
PC-3 prostate = system: PC-3 prostate
RPMI-8226 leukemia = system: RPMI-8226 leukemia
RXF 393 renal = system: RXF 393 renal
SF-268 CNS = system: SF-268 CNS
SF-295 CNS = system: SF-295 CNS
SF-539 CNS = system: SF-539 CNS
SK-MEL-2 melanoma = system: SK-MEL-2 melanoma
SK-MEL-28 melanoma = system: SK-MEL-28 melanoma
SK-MEL-5 melanoma = system: SK-MEL-5 melanoma
SK-OV-3 ovarian = system: SK-OV-3 ovarian
SN12C renal = system: SN12C renal
SNB-19 CNS = system: SNB-19 CNS
SNB-75 CNS = system: SNB-75 CNS
SR leukemia = system: SR leukemia
SW-620 colon = system: SW-620 colon
T-47D breast = system: T-47D breast
TK-10 renal = system: TK-10 renal
U251 glioblastoma = system: U251 glioblastoma
UACC-257 melanoma = system: UACC-257 melanoma
UACC-62 melanoma = system: UACC-62 melanoma
UO-31 renal = system: UO-31 renal

For `O=C(Nc1ccc(OC(F)(F)Cl)cc1)c1cnc(N2CC[C@@H](O)C2)c(-c2ccn[nH]2)c1`, the GI50 (786-0 renal) was 5.38 µM, the TGI (786-0 renal) was 17.2 µM and the GI50 (A498 renal) was 13.6 µM. For the same molecule, the TGI (A498 renal) was 26.8 µM, the GI50 (A549 NSCLC) was 13.3 µM and the TGI (A549 NSCLC) was 29.7 µM. The GI50 (ACHN renal) was 12.1 µM, the TGI (ACHN renal) was 29.4 µM and the GI50 (BT-549 breast) was 14.8 µM. It also gave a TGI (BT-549 breast) of 28.2 µM, a GI50 (CAKI-1 renal) of 8.07 µM and a TGI (CAKI-1 renal) of 21.1 µM. The GI50 (CCRF-CEM leukemia) was 3.01 µM, the TGI (CCRF-CEM leukemia) was 10.6 µM and the GI50 (COLO 205 colon) was 5.01 µM. The TGI (COLO 205 colon) was 16.6 µM, the GI50 (DU-145 prostate) was 17.7 µM and the TGI (DU-145 prostate) was 32.8 µM. For the same molecule, the GI50 (EKVX NSCLC) was 14 µM, the TGI (EKVX NSCLC) was 28.8 µM and the GI50 (HCC-2998 colon) was 2.85 µM. It also gave a TGI (HCC-2998 colon) of 8.48 µM, a GI50 (HCT-116 colon) of 10.9 µM and a TGI (HCT-116 colon) of 23.7 µM. It also gave a GI50 (HCT-15 colon) of 2.94 µM, a TGI (HCT-15 colon) of 10.9 µM and a GI50 (HL-60(TB) leukemia) of 2.77 µM. The TGI (HL-60(TB) leukemia) was 6.75 µM, the GI50 (HOP-62 NSCLC) was 9.4 µM and the TGI (HOP-62 NSCLC) was 22.7 µM. It also gave a GI50 (HOP-92 NSCLC) of 13.7 µM, a TGI (HOP-92 NSCLC) of 26.8 µM and a GI50 (HS 578T breast) of 12.6 µM. It also gave a TGI (HS 578T breast) of 25.3 µM, a GI50 (HT29 colon) of 2.57 µM and a TGI (HT29 colon) of 6.27 µM. The GI50 (IGROV1 ovarian) was 10.9 µM, the TGI (IGROV1 ovarian) was 23.6 µM and the GI50 (KM12 colon) was 4.57 µM. The TGI (KM12 colon) was 15.4 µM, the GI50 (LOX IMVI melanoma) was 7.26 µM and the TGI (LOX IMVI melanoma) was 20.2 µM. For the same molecule, the GI50 (M14 melanoma) was 10.5 µM, the TGI (M14 melanoma) was 22.9 µM and the GI50 (MALME-3M melanoma) was 6.97 µM. The TGI (MALME-3M melanoma) was 20.5 µM, the GI50 (MCF7 breast) was 9.56 µM and the TGI (MCF7 breast) was 21.9 µM. For the same molecule, the GI50 (MDA-MB-231 breast) was 10.4 µM, the TGI (MDA-MB-231 breast) was 22.5 µM and the GI50 (MDA-MB-435 melanoma) was 12 µM. The TGI (MDA-MB-435 melanoma) was 24.8 µM, the GI50 (MDA-MB-468 breast) was 3.89 µM and the TGI (MDA-MB-468 breast) was 15 µM. For the same molecule, the GI50 (MOLT-4 leukemia) was 5.82 µM, the TGI (MOLT-4 leukemia) was 18.3 µM and the GI50 (NCI-H226 lung) was 4.76 µM. It also gave a TGI (NCI-H226 lung) of 17 µM, a GI50 (NCI-H23 lung) of 12.3 µM and a TGI (NCI-H23 lung) of 25.9 µM. For the same molecule, the GI50 (NCI-H322M lung) was 12.3 µM, the TGI (NCI-H322M lung) was 25.1 µM and the GI50 (NCI-H460 NSCLC) was 3.95 µM. It also gave a TGI (NCI-H460 NSCLC) of 13.3 µM, a GI50 (NCI-H522 lung) of 11.7 µM and a TGI (NCI-H522 lung) of 24.3 µM. For the same molecule, the GI50 (NCI/ADR-RES ovarian) was 19.3 µM, the TGI (NCI/ADR-RES ovarian) was 41.9 µM and the GI50 (OVCAR-3 ovarian) was 11.1 µM. For the same molecule, the TGI (OVCAR-3 ovarian) was 23.3 µM, the GI50 (OVCAR-4 ovarian) was 6.92 µM and the TGI (OVCAR-4 ovarian) was 26.9 µM. It also gave a GI50 (OVCAR-5 ovarian) of 12.1 µM, a TGI (OVCAR-5 ovarian) of 25.7 µM and a GI50 (OVCAR-8 ovarian) of 6.65 µM. It also gave a TGI (OVCAR-8 ovarian) of 19.5 µM, a GI50 (PC-3 prostate) of 13.6 µM and a TGI (PC-3 prostate) of 26.8 µM. For the same molecule, the GI50 (RPMI-8226 leukemia) was 3.27 µM, the TGI (RPMI-8226 leukemia) was 12.2 µM and the GI50 (RXF 393 renal) was 3.84 µM. It also gave a TGI (RXF 393 renal) of 14.1 µM, a GI50 (SF-268 CNS) of 10.6 µM and a TGI (SF-268 CNS) of 23.4 µM. It also gave a GI50 (SF-295 CNS) of 11.1 µM, a TGI (SF-295 CNS) of 23.2 µM and a GI50 (SF-539 CNS) of 10.1 µM. For the same molecule, the TGI (SF-539 CNS) was 22.5 µM, the GI50 (SK-MEL-2 melanoma) was 15.4 µM and the TGI (SK-MEL-2 melanoma) was 28.8 µM. It also gave a GI50 (SK-MEL-28 melanoma) of 15 µM, a TGI (SK-MEL-28 melanoma) of 28.5 µM and a GI50 (SK-MEL-5 melanoma) of 4.81 µM. The TGI (SK-MEL-5 melanoma) was 17.2 µM, the GI50 (SK-OV-3 ovarian) was 16 µM and the TGI (SK-OV-3 ovarian) was 30.7 µM. For the same molecule, the GI50 (SN12C renal) was 13.7 µM, the TGI (SN12C renal) was 26.8 µM and the GI50 (SNB-19 CNS) was 14.5 µM. For the same molecule, the TGI (SNB-19 CNS) was 27.9 µM, the GI50 (SNB-75 CNS) was 7.86 µM and the TGI (SNB-75 CNS) was 20.9 µM. It also gave a GI50 (SR leukemia) of 1.94 µM, a TGI (SR leukemia) of 4.74 µM and a GI50 (SW-620 colon) of 7.75 µM. For the same molecule, the TGI (SW-620 colon) was 19.7 µM, the GI50 (T-47D breast) was 2.97 µM and the TGI (T-47D breast) was 10.7 µM. For the same molecule, the GI50 (TK-10 renal) was 10.8 µM, the TGI (TK-10 renal) was 26.4 µM and the GI50 (U251 glioblastoma) was 7.26 µM. The TGI (U251 glioblastoma) was 20 µM, the GI50 (UACC-257 melanoma) was 9.12 µM and the TGI (UACC-257 melanoma) was 22.5 µM. The GI50 (UACC-62 melanoma) was 11.6 µM, the TGI (UACC-62 melanoma) was 23.9 µM and the GI50 (UO-31 renal) was 11.6 µM. For the same molecule, the TGI (UO-31 renal) was 24.2 µM.
